Experimental data reported in PubChem BioAssay (NCI).
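Tested at 5 concentrations; 48 h exposure; 96-well plates; endpoints linearly interpolated, else capped at highest concentration. Definition used: TGI = concentration required for complete inhibition of growth.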

Columns and labels:
Test in all cases: NCI anticancer screen, dose series, 48 h
HCT-15 colon = tested on: HCT-15 colon
OVCAR-5 ovarian = tested on: OVCAR-5 ovarian
OVCAR-4 ovarian = tested on: OVCAR-4 ovarian
SK-MEL-5 melanoma = tested on: SK-MEL-5 melanoma
TK-10 renal = tested on: TK-10 renal
COLO 205 colon = tested on: COLO 205 colon
IGROV1 ovarian = tested on: IGROV1 ovarian
U251 CNS = tested on: U251 CNS
HCC-2998 colon = tested on: HCC-2998 colon
RXF 393 renal = tested on: RXF 393 renal
SR leukemia = tested on: SR leukemia
UACC-257 melanoma = tested on: UACC-257 melanoma
NCI-H522 lung = tested on: NCI-H522 lung
SF-295 CNS = tested on: SF-295 CNS
MALME-3M melanoma = tested on: MALME-3M melanoma
UO-31 renal = tested on: UO-31 renal

SMILES | TGI (HCT-15 colon) [µM] | TGI (OVCAR-5 ovarian) [µM] | TGI (OVCAR-4 ovarian) [µM] | TGI (SK-MEL-5 melanoma) [µM] | TGI (TK-10 renal) [µM] | TGI (COLO 205 colon) [µM] | TGI (IGROV1 ovarian) [µM] | TGI (U251 CNS) [µM] | TGI (HCC-2998 colon) [µM] | TGI (RXF 393 renal) [µM] | TGI (SR leukemia) [µM] | TGI (UACC-257 melanoma) [µM] | TGI (NCI-H522 lung) [µM] | TGI (SF-295 CNS) [µM] | TGI (MALME-3M melanoma) [µM] | TGI (UO-31 renal) [µM]
CCCCCCCCC/C=C1\CC(CO)(COC(=O)C2CCCCC2)OC1=O (stereo not drawn) | 41.7 | 38 | 49.3 | 27.3 | 49.8 | 30.9 | 37.7 | 42.6 | 42.3 | 38.7 | > 100 | 87.4 | 34.6 | 34.1 | 31.9 | 55.8
CC1=NN(C(=O)c2ccccc2O)C(=O)/C1=C/c1ccccc1O | 21.2 | > 93.8 | 68.3 | 14.2 | > 100 | > 89.1 | 3.63 | > 100 | 55.6 | 0.924 | 65.4 | 30.5 | 17.9 | > 100 | 74.4 | 1.56
COc1cccc2c(Nc3ccc(S(=O)(=O)NC(C)=O)cc3)c3ccc([N+](=O)[O-])cc3nc12 | > 100 | > 100 | > 100 | > 78.3 | > 56.7 | > 95.7 | > 86.7 | > 53.5 | > 100 | > 100 | 34.3 | > 54.9 | > 100 | > 100 | > 87 | > 100
O=C(O)c1ccc2c(c1)CC1(C2)Cc2ccccc2C1=O (stereo not drawn) | > 100 | > 100 | > 100 | > 100 | > 100 | > 100 | > 100 | > 100 | > 100 | > 100 | > 100 | > 100 | > 100 | > 100 | > 100 | > 100
CC(=O)OCC1OC(N2C(C)=C(C(C)=O)C(c3ccco3)C(C#N)=C2S)C(OC(C)=O)C(OC(C)=O)C1OC(C)=O (stereo not drawn) | > 100 | > 100 | > 100 | > 100 | > 100 | > 100 | > 100 | > 100 | > 100 | > 100 | > 100 | > 100 | > 100 | > 100 | > 100 | > 100
CC1(C)CCCCCCC2OC2CCCCCC(C)(C)C1=O (stereo not drawn) | > 100 | > 100 | > 100 | 50.2 | > 100 | 29.5 | > 100 | 63.2 | > 70.8 | 49.5 | > 70 | > 93.5 | > 80.4 | > 67.3 | > 100 | 88.2
CCOC(=O)C(NC(=O)CC(C)C)(Nc1ccc(S(=O)(=O)Nc2nc(C)cc(C)n2)cc1)C(F)(F)F (stereo not drawn) | > 100 | > 100 | > 100 | > 100 | > 100 | > 100 | > 100 | > 100 | 99.2 | > 100 | > 100 | > 100 | > 100 | > 100 | > 100 | > 100
CCCCC(=O)NC1(c2cc3ccccc3s2)CCCCC1 | > 100 | > 100 | > 100 | > 100 | > 100 | > 100 | > 100 | > 100 | > 100 | > 100 | > 100 | > 100 | > 100 | > 100 | > 100 | > 100
O=C(O)c1ccc(Nc2nc3ccccc3nc2-c2cccs2)cc1 | > 100 | > 100 | > 100 | > 100 | > 100 | > 100 | > 100 | > 100 | > 100 | > 100 | > 100 | > 100 | > 100 | > 100 | > 100 | > 100
O=c1[nH]nc(Cc2ccccc2)n1/N=C/c1ccccc1Cl | > 100 | > 100 | > 100 | > 100 | > 100 | > 100 | > 100 | > 100 | > 100 | 48.5 | > 100 | > 100 | > 100 | > 100 | > 100 | > 100
CCOC(=O)/C(C#N)=C1\c2c([nH]c(=S)[nH]c2=O)Oc2ccc3ccccc3c21 | > 100 | > 100 | > 100 | 41.4 | > 100 | > 100 | > 100 | > 100 | > 100 | > 100 | > 100 | > 100 | 54.5 | > 100 | > 100 | > 100
CN(C(=O)Cc1ccc(Cl)c(Cl)c1)[C@@H]1CCCC[C@H]1[N+]1(C)CC=CC1 | > 100 | > 100 | > 100 | > 100 | > 100 | > 100 | > 100 | > 100 | > 100 | > 100 | > 100 | > 100 | > 100 | > 100 | > 100 | > 100
COc1ccc(-c2c(CN3CCOCC3)sc3nc4ccccc4n23)cc1 | > 95 | > 74.7 | > 100 | 98.8 | > 100 | 49.4 | > 86.8 | 41.5 | 99.2 | > 47.5 | 15.1 | > 100 | > 20.2 | > 100 | > 100 | > 100
COc1ccc(C(c2c[nH]c3ccc(Br)cc23)c2c[nH]c3ccc(Br)cc23)cc1 | 0.624 | 1.2 | 1.25 | 1.12 | 2.27 | 0.347 | 0.803 | 0.557 | 0.353 | 0.578 | 0.418 | 0.947 | 0.397 | 1.17 | 2.23 | 1.69
COc1ccc2c(c1)N=C1CSC(c3cccc(Br)c3)N1C2 (stereo not drawn) | 35.5 | 56.8 | 40.4 | 27.6 | 41 | 68.7 | 80.7 | 44.3 | 19.7 | 29.7 | 23.1 | 24.3 | 39.1 | 40.8 | 43.1 | 30.7
CC(=O)NC1C(O)C(O)C(CO)OC1n1ncc(=O)[nH]c1=O (stereo not drawn) | > 100 | > 100 | > 100 | > 100 | > 100 | > 100 | > 100 | > 100 | > 100 | > 100 | > 100 | > 100 | > 100 | > 100 | > 100 | > 100
CCN(CC)C(=S)SNCc1ccc(S(N)(=O)=O)cc1 | 58 | 29.9 | 48.1 | 36.2 | > 66 | 27.7 | 26.6 | 15.8 | > 100 | 45.9 | > 64.6 | 33.5 | 22.2 | 34.9 | 30.9 | 28.8
[N-]=[NH+]CC(=O)OC(COCc1ccccc1)COCc1ccccc1 | > 100 | > 100 | > 100 | > 100 | > 100 | > 100 | > 100 | > 100 | > 100 | > 100 | > 100 | > 100 | > 100 | > 100 | > 100 | 63
